# Results reported in patent US20100048671A1, “INHIBITION OF THE 44 KILODALTON ISOFORM OF PIM-1 KINASE RESTORES APOPTOSIS INDUCED BY CHEMOTHERAPEUTIC DRUGS IN CANCER CELLS” (priority 2005, published 2010).
# Where two headings read alike, the source gives them in different places.
# Columns and labels:
# Format in all cases: cell-based, human
# MCF7-MX cells = test: Drug sensitivity (WST-1) of MCF7-MX cells infected with lenti-virus encoding Pim-1 SiRNA; settings: Flavopiridol (15 μM) or DTX (50 μM), 2 days
# Experimental: FIG. 11A: MCF7-MX cells infected with lenti-virus encoding vector control and Pim-1 SiRNA were treated with Flavopiridol (15 μM) or DTX (50 μM) as indicated for 2 days. Cell viability was determined using the WST-1 assay. P<0.05 FIG. 11B: expression levels of Pim-1, BCRP and actin analyzed by immunoblotting with the respective antibodies.
# (§1) The phosphorylation of BCRP is therapeutically significant because it […] BCRP from causing resistance to chemotherapeutic agents. […] Downregulating Pim-1L expression by a specific siRNA also sensitized the prostate cancer cell line CWR-R1 to apoptosis induced by the chemotherapeutic agents mitoxantrone, topotecan and docetaxel (FIG. 12). The siRNA target sequence for inhibiting Pim-1L expression used to inhibit Pim-1L expression is sequence is: 5′ GCAGGACAGUGCUUGAUAC 3′ identified as SEQ ID NO. 3, as is described in a previous study (29, the entire contents of which is hereby incorporated by reference as if fully set forth herein). This siRNA is targeted at nucleotides 1540-1558 of SEQ ID NO. 1.
# [1] = tested on: LNCaP cells over-expressing BCRP; test: Drug sensitivity (WST-1) of LNCaP cells over-expressing BCRP infected with lenti-virus encoding Pim-1 SiRNA; settings: MX (0.5 μM) or TPT (0.1 μM), 2 days
# Experimental: FIG. 13A: LNCaP cells infected with lenti-virus encoding vector control, BCRP, Pim-1SiRNA or both were treated with the indicated drugs MX (0.5 μM) or TPT (0.1 μM) for 2 days. Cell viability was determined using the WST-1 assay FIG. 13B: Immunoprecipitation was performed by using anti-BCRP.
# Pim-1L = test: Threonine phosphorylation of endogenous BCRP after Pim-1 siRNA (immunoprecipitation with anti-BCRP, immunoblotting with anti-phosphothreonine); settings: MCF7/MX cells; lenti-virus encoded siRNA vs vector control
# Excerpt: MCF7-MX cell lysates infected with lenti-virus encoding Vector control and Pim-1 SiRNA(SiPim-1) were subjected to immunoprecipitation with monoclonal BCRP antibody, followed by immunoblotting with anti-phosphothreonine (αpThr).
# as §1
# The transfected cells were lysed in the buffer (20 mM TrisHCl pH 7.4, 150 mM NaCl, 1 mM EDTA, 1 mM EGTA, 1% Triton X-100, 1 mM Na3VO4, 1 mg/ml aprotinin, 1 mg/ml leupterin and 1 mM PMSF). Insoluble material was removed by centrifugation, and antibodies were added to lysates and incubated for 1-3 hour at 4° C. […]
# CWR-R1 cells = test: Drug sensitivity (WST-1) of CWR-R1 cells infected with lenti-virus encoding Pim-1 SiRNA; settings: mitoxantrone (2 μM), topotecan (5 μM) or docetaxel (50 nM), 2 days
# Experimental: FIG. 12A: CWR-R1 cells infected with lenti-virus encoding vector control and Pim-1 SiRNA were treated with MX (2 μM), TPT (5 μM) or DTX (50 nM), respectively for 2 days. Cell viability was determined using the WST-1 assay. FIG. 12B: immunoprecipitation performed by using anti-BCRP.
# as §1
# LNCaP cells [2] = test: Drug sensitivity assay (WST-1 cell viability) of lenti-virus infected LNCaP cells treated with doxorubicin; settings: for viability at 0.1 µg/mL: Homo sapiens, LNCaP, read-out: cells remained viable
# Experimental: FIG. 5A: LNCaP cells infected with lenti-virus encoding Flag-Pim-1S, Pim-1L, Pim-1LKM (kinase-deficient mutant) or vector control were treated with doxorubicin (0.1 ug/ml) for the times as indicated. Cell viability was determined by the WST-1 assay. The data were expressed as the mean of triplicates of the doxorubicin-treated samples relative to the untreated controls. * p<0.01 compared with the vector control. The expression of the Pim-1 proteins encoded by the lenti-viruses was determined by immunoblotting with anti-Flag antibody. […] The response to doxorubicin was determined at 20 hour as above. * p<0.01 compared with the vector control; ** p<0.01 compared with Pim-1L alone. Expression of Flag-Pim-1L and T7-EtkKQ was monitored by immunoblotting with anti-Flag and anti-T7 antibody, respectively. FIG. 5C: LNCaP cells infected with the lenti-viruses encoding the indicated proteins as in 5A were treated with 10-100 nM mitoxantrone for 48 h; cell viability was determined as in 5A. * p<0.01 compared with the vector control. FIG. 5D: Etk mediates Pim-1L-induced resistance to mitoxantrone. LNCaP cell were infected with the lenti-viruses and the mitoxatrone response was determined. * p<0.01 compared with the vector control; ** p<0.01 compared with Pim-1L alone. […] LNCaP cells were transfected with the plasmids as indicated. The association of Etk with p53 was determined by immunoprecipitation with anti-p53 and followed by immunoblotting with anti-T7 antibody. The expression of p53, Etk or Pim-1 in these cells was monitored by immunoblotting with anti-p53, anti-T7 and anti-Flag antibody, respectively.
# An increase of Etk activity confers drug resistance to apoptosis caused by chemotherapeutic agents in LNCaP cells (20), including doxorubicin and cisplatin. By contrast, P53 binding to Etk decreases Etk activity permits apoptosis. However, the mechanism by which Etk is activated was not known. […] As is shown in FIG. 5A, treatment of LNCaP cells with doxorubicin induced rapid apoptosis as was expected. […] Over-expression of Pim-1S conferred some initial protection against drug-induced apoptosis with about 80% cell survival at 20 h. However, such protection was not sustained until 40 hours. […] In this experiment, LNCaP cells were infected with Lenti-virus encoding Flag-Pim-1 S, Pim-1L, Pim-1LKM (kinase-deficient mutant) or vector control for 24h.
# LNCaP cells were infected with the lentiviruses encoding the proteins as indicated by using the protocol described previously (19). At 48 hour post-infection, the cells were seeded into the 96 well plates (3×10^4/well). Doxorubicin or mitoxantrone was added in the medium after 24 h. The effects of doxorubicin on the viability of cells were measured after 20-48 hour by the WST-1 assay (Roche Molecular Biochemicals). The viability rates are expressed as means±SD of the triplicate for each experiment. An aliquot of cells was lysed and followed by immunoblotting with anti-T7 or anti-Flag to monitor the transfection efficiency.
# LNCaP cells [3] = test: Induction of Pim-1 expression by IL-6 (immunoblotting with monoclonal anti-Pim-1 antibody); settings: serum starved LNCaP cells; 25 ngml IL-6, 24 hour, 37 degrees
# Excerpt: FIG. 1A: Induction of Pim-1 expression by IL-6 in LNCaP cells. FIG. 1B: The effects of neutralizing antibody against IL-6 on the protein level of Pim-1 in PC3 cells. FIG. 1C: Expression of the two isoforms of Pim-1 by the EST clones in transfected LNCaP, 22Rv1 and PC3 cells FIG. 1D: The N-terminal unique sequence in human 44 kD Pim-1. Part of the sequence of the 5′ end of Pim-1 cDNA in the EST clones is shown. The putative alternative translation initiation site CUG and the start codon AUG are in boldface. FIG. 1E: Alignment of the unique N-terminal sequence in the 44 kD Pim-1 from human and mouse origins. Proline-rich motifs are underlined and bold. The translation initiation sites of the two isoforms are shown by arrows.
# Induction of Pim-1 expression by IL-6 was assessed in serum starved LNCaP cells that were treated with 25 ngml IL-6 for 24 hour at 37 degrees. The level of Pim-1 protein was examined by immunoblotting with a monoclonal anti-Pim-1 antibody (Top). The same blot was then probed with anti-actin to monitor the sample loading (Bottom). […] One embodiment of the present invention is directed to the isolated human 44 kD isoform identified by SEQ ID NO. 4 or a functional equivalent or variant thereof and its use in screening assays. We are the first to isolate and describe the gene for the 44 kD isoforms identified in SEQ ID NO. […]
molecule,measurement,setting,value
"5′ GCAGGACAGUGCUUGAUAC 3′ (lentivirus encoded, further chemistry not given here; listed as Homo sapiens) [siRNA, 1, lenti-virus encoded]",BCRP-mediated drug resistance,MCF7-MX cells,inhibited BCRP-mediated drug resistance
same,BCRP-mediated resistance to mitoxantrone and topotecan,[1],able to reduce or compromise BCRP-mediated resistance
same,phosphorylation of BCRP,Pim-1L,significantly reduced
same,sensitivity to apoptosis induced by chemotherapeutic agents,CWR-R1 cells,sensitized
COc1cccc2c1C(=O)c1c(O)c3c(c(O)c1C2=O)C[C@@](O)(C(=O)CO)C[C@@H]3O[C@H]1C[C@H](N)[C@H](O)[C@H](C)O1 [doxorubicin],viability at 0.1 µg/mL,LNCaP cells [2]; 20 h,~50%
same,viability at 0.1 µg/mL,LNCaP cells [2]; 40 h,> 70%
same,apoptotic cells detected,"LNCaP cells [2]; LNCaP cells expressing Pim-1L, doxorubicin 0.1 ug/ml, 20 hours post-treatment",Virtually no apoptotic cells were detected
same,cells that survived,"LNCaP cells [2]; LNCaP cells expressing the empty vector or kinase-inactive Pim-1LKM, doxorubicin 0.1 ug/ml, 40 hour treatment",20%
same,cell survival,"LNCaP cells [2]; LNCaP cells over-expressing Pim-1S, doxorubicin 0.1 ug/ml, 20 h",about 80%
"IL-6: interleukin 6, cytokine used to induce Pim-1 expression",expression of the 44 kD Pim-1 protein,LNCaP cells [3],induced
